A short description of series [1]: Toxicity in Vero-C1008 cells at 6.25 to 50 ug/ml. Particulars: African green monkey; call rule not given here. It is filed as cell-based.
In series [2] the target is Cyclin-dependent kinase 5/CDK5 activator 1 (Homo sapiens, UniProt Q00535). In words: Inhibitory activity against Cdk5/p25. It is filed as protein-complex assay.
The species named for the next series is Homo sapiens. In words: Selectivity for Cdk5/p25 over Cdk2/cyclin E.
Series [3] in a line: Inhibitory activity against Cdk2/cyclin E. More on the design: species or system Homo sapiens.

In general, IC50 refers to the concentration at which inhibition is half-maximal.

SMILES strings stand for the structures.

Cyclin-dependent kinase 5/CDK5 activator 1, sequence (Q00535 whole entry): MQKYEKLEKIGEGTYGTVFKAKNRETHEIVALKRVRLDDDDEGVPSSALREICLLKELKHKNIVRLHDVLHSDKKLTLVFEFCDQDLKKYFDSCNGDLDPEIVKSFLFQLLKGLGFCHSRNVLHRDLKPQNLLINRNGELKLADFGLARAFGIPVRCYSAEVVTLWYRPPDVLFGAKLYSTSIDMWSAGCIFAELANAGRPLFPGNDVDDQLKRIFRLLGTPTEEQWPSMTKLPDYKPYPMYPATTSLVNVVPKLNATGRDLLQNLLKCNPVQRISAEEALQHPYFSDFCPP
Cyclin-dependent kinase 5/CDK5 activator 1, sequence (Q15078 whole entry, further chain): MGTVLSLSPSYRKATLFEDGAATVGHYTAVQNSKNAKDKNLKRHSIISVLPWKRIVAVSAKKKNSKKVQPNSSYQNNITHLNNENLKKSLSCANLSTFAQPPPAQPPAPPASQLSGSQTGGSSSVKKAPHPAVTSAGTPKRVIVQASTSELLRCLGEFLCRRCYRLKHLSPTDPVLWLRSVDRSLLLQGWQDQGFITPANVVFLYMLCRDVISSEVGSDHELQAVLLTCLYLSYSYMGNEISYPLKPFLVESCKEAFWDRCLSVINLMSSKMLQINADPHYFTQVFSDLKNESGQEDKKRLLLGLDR

On to `Cc1cc(NC(=O)CCl)sc1-c1nnc2n1N=C(c1cc(F)c(Cl)cc1Cl)/C(=C/c1cccc([N+](=O)[O-])c1)S2`, for which the Activity result in series [1] is listed as “Not Active”. In addition, the IC50 in series [2] turned out to be 3070 nM.
The matching figures for `Cc1cc(NC(=O)CCl)sc1-c1nnc2n1N=C(c1cc(F)c(Cl)cc1Cl)/C(=C/c1ccccc1)S2`: “Not Active” and 3420 nM.
For the compound `Cc1cc(NC(=O)CCl)sc1-c1nnc2n1NC(c1ccccc1)=C(c1ccccc1)S2`, the Activity entry in series [1] is “Not Active”. Also, the results for the IC50 in series [2] and in series [3] were 72 nM and 154 nM, respectively. Also, the Ratio IC50 in the series filed under Homo sapiens amounted to 2.
With `Cc1cc(NC(=O)CCl)sc1-c1nnc2n1Nc1nc3ccccc3nc1S2`, the Activity result in series [1] is “Not Active”. Further, the values for the IC50 in series [2] and in series [3] were 64 nM and 142 nM, respectively. The Ratio IC50 in the series filed under Homo sapiens turned out to be 2.2.
Regarding `O=C(CCl)Nc1cc(-c2ccccc2)c(-c2nnc3n2N=C(c2cc(F)c(Cl)cc2Cl)/C(=C/c2ccccc2Cl)S3)s1`, in series [1], the Activity result is given as “Not Active”. In addition, in series [2], the midpoint of inhibition, the IC50, lay at 2460 nM.
As for `CC(=O)Nc1cc(C)c(-c2nnc3n2N=C(c2cc(F)c(Cl)cc2Cl)/C(=C/c2cccc([N+](=O)[O-])c2)S3)s1`, the Activity entry in series [1] was “Not Active”. Further, the IC50 in series [2] was 3050 nM.
With `Cc1cc(NC(=O)CCl)sc1-c1nnc2sc(-c3cccc([N+](=O)[O-])c3)nn12`, the Activity result in series [1] is given as “Not Active”. Moreover, the results for the half-maximal inhibitory concentration (IC50) in series [2] and in series [3] were 53 nM and 64 nM, respectively. Further, the Ratio IC50 in the series filed under Homo sapiens was found to be 1.
Regarding `CC(=O)Nc1cc(-c2ccccc2)c(-c2nnc3n2N=C(C)CS3)s1`, in series [1], the Activity entry is “Not Active”. Moreover, in series [2], it took 448 nM to reach half-maximal inhibition (IC50).
Take `O=C(CCl)Nc1cc(-c2ccccc2)c(-c2nnc3sc(-c4ccccc4)nn23)s1`: in series [1], the Activity entry is “Not Active”. The concentration for half-maximal inhibition (IC50) in series [2] worked out at 28 nM; in series [3], 92 nM. In the series filed under Homo sapiens, the Ratio IC50 was determined as 3.2.
As to `Nn1c(S)nnc1-c1sc(NC(=O)CCl)cc1-c1ccccc1`, the Activity result in series [1] is reported as “Not Active”. Further, the IC50 in series [2] turned out to be 42 nM; in series [3], 120 nM. In addition, the Ratio IC50 in the series listed under Homo sapiens amounted to 3.
In the case of `CC(=O)Nc1cc(C)c(-c2nnc3n2Nc2nc4ccccc4nc2S3)s1`, the Activity entry in series [1] is reported as “Not Active”. Also, the IC50 turned out to be 34 nM in series [2] and 70 nM in series [3]. Besides, the Ratio IC50 in the series filed under Homo sapiens amounted to 2.
In the same order, the values of `CC(=O)Nc1cc(C)c(-c2nnc3sc(-c4cccc([N+](=O)[O-])c4)nn23)s1` are “Not Active”, 64 nM, 78 nM and 1.
In the case of `O=C(CCl)Nc1cc(-c2ccccc2)c(-c2nnc3n2NC(c2ccccc2)=C(c2ccccc2)S3)s1`, the Activity result in series [1] is “Not Active”. The results for the IC50 in series [2] and in series [3] were 62 nM and 126 nM, respectively. The Ratio IC50 in the series filed under Homo sapiens was found to be 2.
Consider `CC(=O)Nc1cc(-c2ccccc2)c(-c2nnc3n2NC(=O)CS3)s1`, for which the Activity result in series [1] was “Not Active”. In addition, in series [2], the midpoint of inhibition, the IC50, lay at 418 nM.
With `CC(=O)Nc1cc(-c2ccccc2)c(-c2nnc3sc(=S)[nH]n23)s1`, the Activity entry in series [1] is reported as “Not Active”. For the same compound, the IC50 in series [2] amounted to 2060 nM.
With `O=C(CCl)Nc1cc(-c2ccccc2)c(-c2nnc3sc(-c4cccc([N+](=O)[O-])c4)nn23)s1`, the Activity result in series [1] is on record as “Not Active”. Also, the values for the IC50 in series [2] and in series [3] were 48 nM and 52 nM, respectively. The Ratio IC50 in the series filed under Homo sapiens worked out at 1.
The matching figures for `CC(=O)Nc1cc(-c2ccccc2)c(-c2nnc3sc(-c4ccccc4)nn23)s1`: “Not Active”, 38 nM, 44 nM and 1.2.
The matching figures for `CC(=O)Nc1cc(C)c(-c2nnc(S)n2N)s1`: “Not Active”, 58 nM, 53 nM and 1.
Consider `CC(=O)Nc1cc(-c2ccccc2)c(-c2nnc3n2N=C(c2cc(F)c(Cl)cc2Cl)/C(=C/c2ccccc2Cl)S3)s1`, for which the Activity entry in series [1] is given as “Not Active”. This compound yielded an IC50 in series [2] of 2460 nM.
In the same order, the values of `O=C(CCl)Nc1cc(-c2ccccc2)c(-c2nnc3sc(S)nn23)s1` are “Not Active” and 5900 nM.
With `Cc1cc(NC(=O)CCl)sc1-c1nnc2sc(=S)[nH]n12`, the Activity result in series [1] was “Not Active”. Further, in series [2], the IC50 stood at 7480 nM.
In the case of `CC(=O)Nc1cc(C)c(-c2nnc3sc(-c4ccccc4)nn23)s1`, the Activity result in series [1] was “Not Active”. The figures for the IC50 in series [2] and in series [3] were 42 nM and 51 nM, respectively. Moreover, the Ratio IC50 in the series listed under Homo sapiens was determined as 1.2.
Turning to `CC(=O)Nc1cc(-c2ccccc2)c(-c2nnc3n2N=C(c2cc(F)c(Cl)cc2Cl)/C(=C/c2ccccc2)S3)s1`, the Activity entry in series [1] is “Not Active”. In series [2], this compound had an IC50 of 1450 nM.
In the case of `CC(=O)Nc1cc(-c2ccccc2)c(-c2nnc3n2N=C(c2cc(F)c(Cl)cc2Cl)/C(=C/c2ccc(Cl)cc2)S3)s1`, in series [1], the Activity result is “Not Active”. This compound registered an IC50 in series [2] of 2480 nM.
As for `CC(=O)Nc1cc(C)c(-c2nnc3sc(=S)[nH]n23)s1`, the Activity result in series [1] is recorded as “Not Active”. This compound returned an IC50 in series [2] of 3260 nM.
As for `CC(=O)Nc1cc(-c2ccccc2)c(-c2nnc3n2Nc2nc4ccccc4nc2S3)s1`, the Activity result in series [1] is “Not Active”. In addition, the results for the half-maximal inhibitory concentration (IC50) in series [2] and in series [3] were 54 nM and 64 nM, respectively. Further, the Ratio IC50 in the series filed under Homo sapiens was determined as 1.2.
In the same order, the values of `CC(=O)Nc1cc(-c2ccccc2)c(-c2nnc(S)n2N)s1` are “Not Active”, 54 nM, 56 nM and 1.
As to `Cc1cc(NC(=O)CCl)sc1-c1nnc(S)n1N`, the Activity result in series [1] was “Not Active”. For the same compound, the IC50 stood at 46 nM in series [2] and 49 nM in series [3].
On to `CC1=Nn2c(nnc2-c2sc(NC(=O)CCl)cc2C)SC1`, for which the Activity result in series [1] is given as “Not Active”. The midpoint of inhibition in series [2], the IC50, lay at 462 nM.
As for `Cc1cc(NC(=O)CCl)sc1-c1nnc2sc(-c3ccccc3)nn12`, in series [1], the Activity entry was “Not Active”. In addition, the IC50 in series [2] is 30 nM; in series [3], 95 nM. Moreover, in the series filed under Homo sapiens, the Ratio IC50 was 3.2.
As for `O=C(CCl)Nc1cc(-c2ccccc2)c(-c2nnc3n2N=C(c2cc(F)c(Cl)cc2Cl)/C(=C/c2ccc(Cl)cc2)S3)s1`, the Activity entry in series [1] is given as “Not Active”. It took 2450 nM to reach half-maximal inhibition in series [2] (IC50).
For the compound `O=C(CCl)Nc1cc(-c2ccccc2)c(-c2nnc3n2N=C(c2cc(F)c(Cl)cc2Cl)/C(=C/c2cccc([N+](=O)[O-])c2)S3)s1`, in series [1], the Activity result was “Not Active”. The compound also displayed an IC50 in series [2] of 2680 nM.
As to `O=C(CCl)Nc1cc(-c2ccccc2)c(-c2nnc3n2NC(=O)CS3)s1`, the Activity entry in series [1] was “Not Active”. In addition, the IC50 in series [2] amounted to 634 nM.
Take `CC(=O)Nc1cc(C)c(-c2nnc3n2NC(=O)CS3)s1`: the Activity result in series [1] is listed as “Not Active”. In addition, in series [2], the IC50 is 630 nM.
In the case of `CC(=O)Nc1cc(C)c(-c2nnc3n2N=C(C)CS3)s1`, in series [1], the Activity result is “Not Active”. Further, in series [2], the IC50 is 642 nM.
Regarding `CC(=O)Nc1cc(C)c(-c2nnc3n2N=C(c2cc(F)c(Cl)cc2Cl)/C(=C/c2ccccc2)S3)s1`, the Activity entry in series [1] is on record as “Not Active”. The compound further displayed an IC50 in series [2] of 2370 nM.
Consider `CC(=O)Nc1cc(C)c(-c2nnc3n2NC(c2ccccc2)=C(c2ccccc2)S3)s1`, for which the Activity entry in series [1] is “Not Active”. Besides, the IC50 in series [2] stood at 44 nM; in series [3], 89 nM. The Ratio IC50 in the series filed under Homo sapiens stood at 2.
For the compound `O=C(CCl)Nc1cc(-c2ccccc2)c(-c2nnc3n2N=C(c2cc(F)c(Cl)cc2Cl)/C(=C/c2ccccc2)S3)s1`, the Activity result in series [1] is “Not Active”. The compound further returned an IC50 in series [2] of 2490 nM.
In the case of `Cc1cc(NC(=O)CCl)sc1-c1nnc2n1N=C(c1cc(F)c(Cl)cc1Cl)/C(=C/c1ccccc1Cl)S2`, in series [1], the Activity result is listed as “Not Active”. Also, the IC50 in series [2] stood at 3340 nM.
With `O=C(CCl)Nc1cc(-c2ccccc2)c(-c2nnc3n2Nc2nc4ccccc4nc2S3)s1`, in series [1], the Activity result is reported as “Not Active”. Further, the values for the concentration for half-maximal inhibition (IC50) in series [2] and in series [3] were 30 nM and 102 nM, respectively. The Ratio IC50 in the series filed under Homo sapiens stood at 3.2.
For the compound `CC(=O)Nc1cc(C)c(-c2nnc3n2N=C(c2cc(F)c(Cl)cc2Cl)/C(=C/c2ccccc2Cl)S3)s1`, the Activity result in series [1] was “Not Active”. This compound also yielded an IC50 in series [2] of 3280 nM.
In the same order, the values of `CC1=Nn2c(nnc2-c2sc(NC(=O)CCl)cc2-c2ccccc2)SC1` are “Not Active” and 368 nM.
The matching figures for `CC(=O)Nc1cc(C)c(-c2nnc3n2N=C(c2cc(F)c(Cl)cc2Cl)/C(=C/c2ccc(Cl)cc2)S3)s1`: “Not Active” and 3390 nM.
As for `CC(=O)Nc1cc(-c2ccccc2)c(-c2nnc3n2N=C(c2cc(F)c(Cl)cc2Cl)/C(=C/c2cccc([N+](=O)[O-])c2)S3)s1`, the Activity result in series [1] is on record as “Not Active”. In addition, the IC50 in series [2] is 2440 nM.
As to `Cc1cc(NC(=O)CCl)sc1-c1nnc2n1NC(=O)CS2`, the Activity entry in series [1] is given as “Not Active”. In addition, in series [2], the IC50 is 820 nM.
For the compound `CC(=O)Nc1cc(-c2ccccc2)c(-c2nnc3n2NC(c2ccccc2)=C(c2ccccc2)S3)s1`, the Activity result in series [1] was “Not Active”. Also, the results for the IC50 in series [2] and in series [3] were 40 nM and 82 nM, respectively. Besides, in the series listed under Homo sapiens, the Ratio IC50 is 2.
Turning to `CC(=O)Nc1cc(-c2ccccc2)c(-c2nnc3sc(-c4cccc([N+](=O)[O-])c4)nn23)s1`, the Activity entry in series [1] is listed as “Not Active”. Besides, the 50% inhibitory concentration (IC50) was 60 nM in series [2] and 64 nM in series [3]. For the same compound, the Ratio IC50 in the series listed under Homo sapiens is 1.
On to `Cc1cc(NC(=O)CCl)sc1-c1nnc2n1N=C(c1cc(F)c(Cl)cc1Cl)/C(=C/c1ccc(Cl)cc1)S2`, for which, in series [1], the Activity entry is “Not Active”. Moreover, half-maximal inhibition in series [2] (IC50) required 2970 nM.

Values taken from ChEMBL document CHEMBL1149673, “A novel approach to cyclin-dependent kinase 5/p25 inhibitors: A potential treatment for Alzheimer's disease” (Bioorg Med Chem, 2007).
